Values quoted from earlier work as cited in PubChem BioAssay AID1259409 (Chemical Carcinogenesis Research Information System (CCRIS), 2018).

Test system: rodent chemically induced tumor inhibition, incidence and multiplicity
Experiment: CCRIS tumor inhibitor studies

In the case of CC(C)c1cc2c(c(O)c1O)[C@@]13CCCC(C)(C)[C@@H]1C[C@@H]2OC3=O, the “tumour outcome (control, treated, inhibition, significance)” value (Carcinogen: 7,12-DIMETHYLBENZ[A]ANTHRACENE, 57-97-6, Dose [Inhibitor]: 0, 1 UMOL IN 200 µL ACETONE 2/WK FOR 20 WK BEGINNING 1 WK POST CARCINOGEN DOSE (STUDY DURATION: 20 WK), Route [Inhibitor]: DERMAL, Species: MOUSE, Strain/Sex: CD-1/FEMALE, Target Tissue: Type of Lesion: SKIN: TUMOR, Dose [Carcinogen]: 200 NMOL IN 200 µL ACETONE ONCE, Promoter: 12-O-TETRADECANOYLPHORBOL-13-ACETATE, 16561-29-8) is listed as 93%, 93%, 0%, not significant, the “tumour outcome (control, treated, inhibition, significance)” value (Carcinogen: 7,12-DIMETHYLBENZ[A]ANTHRACENE, 57-97-6, Dose [Inhibitor]: 0, 3 UMOL IN 200 µL ACETONE 2/WK FOR 20 WK BEGINNING 1 WK POST CARCINOGEN DOSE (STUDY DURATION: 20 WK), Route [Inhibitor]: DERMAL, Species: MOUSE, Strain/Sex: CD-1/FEMALE, Target Tissue: Type of Lesion: SKIN: TUMOR, Dose [Carcinogen]: 200 NMOL IN 200 µL ACETONE ONCE, Promoter: 12-O-TETRADECANOYLPHORBOL-13-ACETATE, 16561-29-8) is listed as 93%, 78%, 16%, not significant and the “tumour outcome (control, treated, inhibition, significance)” value (Carcinogen: 7,12-DIMETHYLBENZ[A]ANTHRACENE, 57-97-6, Dose [Inhibitor]: 0, 10 UMOL IN 200 µL ACETONE 2/WK FOR 20 WK BEGINNING 1 WK POST CARCINOGEN DOSE (STUDY DURATION: 20 WK), Route [Inhibitor]: DERMAL, Species: MOUSE, Strain/Sex: CD-1/FEMALE, Target Tissue: Type of Lesion: SKIN: TUMOR, Dose [Carcinogen]: 200 NMOL IN 200 µL ACETONE ONCE, Promoter: 12-O-TETRADECANOYLPHORBOL-13-ACETATE, 16561-29-8) is listed as 93%, 60%, 35%, not significant.
For CCCCOCCOCCOCc1cc2c(cc1CCC)OCO2, the “tumour outcome (control, treated, inhibition, significance)” value (Carcinogen: N-NITROSODIETHYLAMINE, 55-18-5, Dose [Inhibitor]: 400 MG/KG IN 0.2 ML SESAME OIL (TOTAL VOL 0.1 ML) 2 HR PRIOR TO EACH CARCINOGEN DOSE (STUDY DURATION: 21 WK), Route [Inhibitor]: SUBCUTANEOUS, Species: HAMSTER, Strain/Sex: SYRIAN/MALE, Target Tissue: Type of Lesion: LUNG: ADENOMA, ADENOCARCINOMA, Dose [Carcinogen]: 17.8 MG/KG IN 0.9% SALINE (TOTAL VOL 0.1 ML) 2/WK FOR 20 WK, Promoter: NONE USED) is given as 6/10 (60%), 0/10 (0%), 100%, p<0.01.
In the case of c1cc2ccc3ccc4ccc5cccc6c(c1)c2c3c4c56, the “tumour outcome (control, treated, inhibition, significance)” value (Carcinogen: BENZO[A]PYRENE, 50-32-8, Dose [Inhibitor]: 7 UG IN 0.1 ML ACETONE 3/WK ADMINISTERED SIMULTANEOUSLY WITH CARCINOGEN FOR DURATION OF STUDY (STUDY DURATION: 368 D), Route [Inhibitor]: DERMAL, Species: MOUSE, Strain/Sex: ICR/FEMALE, Target Tissue: Type of Lesion: SKIN: PAPILLOMA, Dose [Carcinogen]: 5 UG IN 0.1 ML ACETONE 3/WK FOR DURATION OF STUDY, Promoter: NONE USED) is given as 14/50 (28%), 19/50 (38%), -36%, not calculated, the “tumour outcome (control, treated, inhibition, significance)” value (Carcinogen: BENZO[A]PYRENE, 50-32-8, Dose [Inhibitor]: 7 UG IN 0.1 ML ACETONE 3/WK ADMINISTERED SIMULTANEOUSLY WITH CARCINOGEN FOR DURATION OF STUDY (STUDY DURATION: 368 D), Route [Inhibitor]: DERMAL, Species: MOUSE, Strain/Sex: ICR/FEMALE, Target Tissue: Type of Lesion: SKIN: SQUAMOUS CARCINOMA, Dose [Carcinogen]: 5 UG IN 0.1 ML ACETONE 3/WK FOR DURATION OF STUDY, Promoter: NONE USED) is given as 10/50 (20%), 10/50 (20%), 0%, not calculated and the “tumour outcome (control, treated, inhibition, significance)” value (Carcinogen: BENZO[A]PYRENE, 50-32-8, Dose [Inhibitor]: 21 UG IN 0.1 ML ACETONE 3/WK ADMINISTERED SIMULTANEOUSLY WITH CARCINOGEN FOR DURATION OF STUDY (STUDY DURATION: 368 D), Route [Inhibitor]: DERMAL, Species: MOUSE, Strain/Sex: ICR/FEMALE, Target Tissue: Type of Lesion: SKIN: PAPILLOMA, Dose [Carcinogen]: 5 UG IN 0.1 ML ACETONE 3/WK FOR DURATION OF STUDY, Promoter: NONE USED) is given as 14/50 (28%), 20/50 (40%), -43%, not calculated. The “tumour outcome (control, treated, inhibition, significance)” value (Carcinogen: BENZO[A]PYRENE, 50-32-8, Dose [Inhibitor]: 21 UG IN 0.1 ML ACETONE 3/WK ADMINISTERED SIMULTANEOUSLY WITH CARCINOGEN FOR DURATION OF STUDY (STUDY DURATION: 368 D), Route [Inhibitor]: DERMAL, Species: MOUSE, Strain/Sex: ICR/FEMALE, Target Tissue: Type of Lesion: SKIN: SQUAMOUS CARCINOMA, Dose [Carcinogen]: 5 UG IN 0.1 ML ACETONE 3/WK FOR DURATION OF STUDY, Promoter: NONE USED) was 10/50 (20%), 18/50 (36%), -80%, not calculated.
In the case of CC(C)=CCC/C(C)=C/Cc1cc2ccc(=O)oc2cc1O, the “tumour outcome (control, treated, inhibition, significance)” value (Carcinogen: 7,12-DIMETHYLBENZ[A]ANTHRACENE, 57-97-6, Dose [Inhibitor]: 0, 400 NMOL ONCE APPLIED 5 MIN PRIOR TO CARCINOGEN DOSE (STUDY DURATION: 25 WK), Route [Inhibitor]: DERMAL, Species: MOUSE, Strain/Sex: SENCAR, Target Tissue: Type of Lesion: SKIN: PAPILLOMA, Dose [Carcinogen]: 10 NMOL ONCE, Promoter: 12-O-TETRADECANOYLPHORBOL-13-ACETATE, 16561-29-8) is given as 96%, 96%, 0%, not significant, the “tumour outcome (control, treated, inhibition, significance)” value (Carcinogen: 7-12-DIMETHYLBENZ[A]ANTHRACENE, 57-97-6, Dose [Inhibitor]: 0, 1200 NMOL ONCE APPLIED 5 MIN PRIOR TO CARCINOGEN DOSE (STUDY DURATION: 25 WK), Route [Inhibitor]: DERMAL, Species: MOUSE, Strain/Sex: SENCAR, Target Tissue: Type of Lesion: SKIN: PAPILLOMA, Dose [Carcinogen]: 10 NMOL ONCE, Promoter: 12-O-TETRADECANOYLPHORBOL-13-ACETATE, 16561-29-8) is given as 93%, 96%, -3%, not significant and the “tumour outcome (control, treated, inhibition, significance)” value (Carcinogen: BENZO[A]PYRENE, 50-32-8, Dose [Inhibitor]: 0, 400 NMOL ONCE APPLIED 5 MIN PRIOR TO CARCINOGEN DOSE (STUDY DURATION: 25 WK), Route [Inhibitor]: DERMAL, Species: MOUSE, Strain/Sex: SENCAR, Target Tissue: Type of Lesion: SKIN: PAPILLOMA, Dose [Carcinogen]: 200 NMOL ONCE, Promoter: 12-O-TETRADECANOYLPHORBOL-13-ACETATE, 16561-29-8) is given as 91%, 91%, 0%, not significant. For the same compound, the “tumour outcome (control, treated, inhibition, significance)” value (Carcinogen: BENZO[A]PYRENE, 50-32-8, Dose [Inhibitor]: 0, 1200 NMOL ONCE APPLIED 5 MIN PRIOR TO CARCINOGEN DOSE (STUDY DURATION: 25 WK), Route [Inhibitor]: DERMAL, Species: MOUSE, Strain/Sex: SENCAR, Target Tissue: Type of Lesion: SKIN: PAPILLOMA, Dose [Carcinogen]: 200 NMOL ONCE, Promoter: 12-O-TETRADECANOYLPHORBOL-13-ACETATE, 16561-29-8) was 92%, 93%, -1%, not significant.
For CC1=C(/C=C/C(C)=C/C=C/C(C)=C\C(=O)Nc2ccc(O)cc2)C(C)(C)CCC1, the “tumour outcome (control, treated, inhibition, significance)” value (Carcinogen: N-BUTYL-N-(4-HYDROXYBUTYL)NITROSAMINE, 3817-11-6, Dose [Inhibitor]: 1.5 MMOL/KG DIET DAILY FOR 153 D STARTING ONE WK AFTER THE FINAL CARCINOGEN DOSE (STUDY DURATION: 210 D), Route [Inhibitor]: ORAL, Species: MOUSE, Strain/Sex: BDF/MALE, Target Tissue: Type of Lesion: URINARY BLADDER: TRANSITIONAL CELL CARCINOMA, Dose [Carcinogen]: 7.5 MG 1/WK FOR 8 WK, Promoter: NONE USED) is given as 35/99 (35%), 21/99 (21%), 40%, p<0.05 and the “tumour outcome (control, treated, inhibition, significance)” value (Carcinogen: N-BUTYL-N-(4-HYDROXYBUTYL)NITROSAMINE, 3817-11-6, Dose [Inhibitor]: 1.5 MMOL/KG/D IN DIET FOR 153 D STARTING 1 WK POST CARCINOGEN TREATMENT (STUDY DURATION: 210 D), Route [Inhibitor]: ORAL, Species: MOUSE, Strain/Sex: BDF/MALE, Target Tissue: Type of Lesion: URINARY BLADDER: TRANSITIONAL CELL CARCINOMA, Dose [Carcinogen]: 7.5 MG 1/WK FOR 8 WK, Promoter: NONE USED) is given as 35/99 (35%), 21/99 (21%), 40%, p<0.05.
